In ChEMBL document CHEMBL1150037, “Calcineurin has a very tight-binding pocket for the side chain of residue 4 of cyclosporin” (1994):

How the values were obtained:
[1] = target: Peptidyl-prolyl cis-trans isomerase A (Rattus norvegicus) (UniProt P10111); assay: In vitro affinity towards cyclophilin A was determined under competitive ELISA systems using protein-conjugated ligand CsA
[2] = organism: Mus musculus; assay: Immunosuppressive activity by mouse mixed lymphocyte reaction (MLR_M) relative to cyclosporin as 1; format: functional
[3] = Immunosuppressive activity with the help of a reporter gene assay for IL-2 (IL2-RGA) relative to cyclosporin as 1; format: functional

Peptidyl-prolyl cis-trans isomerase A (Rattus norvegicus), sequence (P10111 whole entry): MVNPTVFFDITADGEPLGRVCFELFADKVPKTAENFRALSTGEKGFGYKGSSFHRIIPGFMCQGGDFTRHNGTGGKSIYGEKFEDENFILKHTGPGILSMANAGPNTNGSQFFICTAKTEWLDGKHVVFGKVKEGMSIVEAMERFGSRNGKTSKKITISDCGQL

Row | Compound | Relative IC50 [1] | Relative IC50 [2] | Relative IC50 [3]
1 | C/C=C/C[C@@H](C)[C@@H](O)[C@H]1C(=O)N[C@@H](CC)C(=O)N(C)CC(=O)N(C)[C@@H](CC(C)(C)O)C(=O)N[C@@H](C(C)C)C(=O)N(C)[C@@H](CC(C)C)C(=O)N[C@@H](C)C(=O)N[C@H](C)C(=O)N(C)[C@@H](CC(C)C)C(=O)N(C)[C@@H](CC(C)C)C(=O)N(C)[C@@H](C(C)C)C(=O)N1C | 0.9 | 130 | 110
2 | C/C=C/C[C@@H](C)[C@@H](O)[C@H]1C(=O)N[C@@H](CC)C(=O)N(C)CC(=O)N(C)[C@@H](CC(C)(C)F)C(=O)N[C@@H](C(C)C)C(=O)N(C)[C@@H](CC(C)C)C(=O)N[C@@H](C)C(=O)N[C@H](C)C(=O)N(C)[C@@H](CC(C)C)C(=O)N(C)[C@@H](CC(C)C)C(=O)N(C)[C@@H](C(C)C)C(=O)N1C | 2.1 | 25 | 7
3 | C/C=C/C[C@@H](C)[C@@H](O)[C@H]1C(=O)N[C@@H](CC)C(=O)N(C)CC(=O)N(C)[C@@H](CC)C(=O)N[C@@H](C(C)C)C(=O)N(C)[C@@H](CC(C)C)C(=O)N[C@@H](C)C(=O)N[C@H](C)C(=O)N(C)[C@@H](CC(C)C)C(=O)N(C)[C@@H](CC(C)C)C(=O)N(C)C(C(C)C)C(=O)N1C (single isomer, unassigned) | 1.2 | 65 | 163
4 | C/C=C/C[C@@H](C)[C@@H](O)[C@H]1C(=O)N[C@@H](CC)C(=O)N(C)CC(=O)N(C)[C@@H](CCC(C)C)C(=O)N[C@@H](C(C)C)C(=O)N(C)[C@@H](CC(C)C)C(=O)N[C@@H](C)C(=O)N[C@H](C)C(=O)N(C)[C@@H](CC(C)C)C(=O)N(C)[C@@H](CC(C)C)C(=O)N(C)C(C(C)C)C(=O)N1C (single isomer, unassigned) | 1.9 | 3.5 | 9
5 | C/C=C/C[C@@H](C)[C@@H](O)[C@H]1C(=O)N[C@@H](CC)C(=O)N(C)CC(=O)N(C)[C@@H](CC2CC2)C(=O)N[C@@H](C(C)C)C(=O)N(C)[C@@H](CC(C)C)C(=O)N[C@@H](C)C(=O)N[C@H](C)C(=O)N(C)[C@@H](CC(C)C)C(=O)N(C)[C@@H](CC(C)C)C(=O)N(C)C(C(C)C)C(=O)N1C (single isomer, unassigned) | 2.8 | 5 | 5.3
6 | C=C(C)C[C@H]1C(=O)N[C@@H](C(C)C)C(=O)N(C)[C@@H](CC(C)C)C(=O)N[C@@H](C)C(=O)N[C@H](C)C(=O)N(C)[C@@H](CC(C)C)C(=O)N(C)[C@@H](CC(C)C)C(=O)N(C)C(C(C)C)C(=O)N(C)[C@@H]([C@H](O)[C@H](C)C/C=C/C)C(=O)N[C@@H](CC)C(=O)N(C)CC(=O)N1C (single isomer, unassigned) | 1.8 | 1.6 | 4
7 | C/C=C/C[C@@H](C)[C@@H](O)[C@H]1C(=O)N[C@@H](CC)C(=O)N(C)CC(=O)N(C)[C@@H](C(C)C)C(=O)N[C@@H](C(C)C)C(=O)N(C)[C@@H](CC(C)C)C(=O)N[C@@H](C)C(=O)N[C@H](C)C(=O)N(C)[C@@H](CC(C)C)C(=O)N(C)[C@@H](CC(C)C)C(=O)N(C)C(C(C)C)C(=O)N1C (single isomer, unassigned) | 0.5 | 130 | 2500
